Earlier results on three compounds are cited in patent publication US9961901B2, “Mectin and milbemycin nanoparticle formulations” (priority 2013, dated 2018).

Read-outs that look alike come from different tables or passages of the source.

Assay in data set [1]: not given
The source holds these as a separate data set.

The conditions of data set [2]: 20° C.

Take emamectin: the “Aqueous Photolysis DT50” value (pH 7) was “DT50: 32 d at pH 7”. Besides, the “Octanol-Water Coefficient Log P” value in data set [1] is “Log P: 5.0”. In data set [2], the “Solubility, Methanol” value is “Methanol: 2700 g/L” and the “Solubility, Water” value was “Water: 24 mg/L”.

For the compound `CC[C@H](C)[C@H]1O[C@]2(C=C[C@@H]1C)C[C@@H]1C[C@@H](C/C=C(\C)[C@@H](O[C@H]3C[C@H](OC)[C@@H](O[C@H]4C[C@H](OC)[C@@H](O)[C@H](C)O4)[C@H](C)O3)[C@@H](C)/C=C/C=C3\CO[C@@H]4[C@H](O)C(C)=C[C@@H](C(=O)O1)[C@]34O)O2` [abamectin], the “Aqueous Photolysis DT50” value (pH 7) is listed as “DT50: 1.5 d at pH 7”. Also, the “Octanol-Water Coefficient Log P” value in data set [1] is recorded as “Log P: 4.4”. In addition, in data set [2] (acetone), the “Solubility, Acetone” value was “Acetone: 72,000 mg/L”. The “Solubility, Ethyl Acetate” value in data set [2] (ethyl acetate) is “Ethyl Acetate: 160,000 mg/L”. Also, the “Solubility, Water” value in data set [2] was “Water: 1.21 mg/L”.

As to milbemycin, the “Aqueous Photolysis DT50” value (pH 5) was “DT50: 3 d at pH 5 (aqueous”. In addition, the “Octanol-Water Coefficient Log P” value in data set [1] is reported as “Log P: 6.8”. Moreover, in data set [2], the “Solubility, Methanol” value is recorded as “Methanol: 251,000 mg/L” and the “Solubility, Water” value is recorded as “Water 3.6 mg/L”. In addition, in data set [2] (n-heptane), the “Solubility, n-heptane” value is “n-heptane: 5,060 mg/L”.
